Literature values as cited in the PKSmart pharmacokinetics tables (Seal et al. 2025).
*1 amine or outer side, *2 acyl side, *3 side chain or, on linkers, in order; H or OH if unused. Where a SMILES comes first, the peptide text is derived from it. Bridges are numbered along the chain shown (N, C = ends). [ ]: non-standard residue; d: D form. The star is where a group is joined. ξ: configuration not given here. X2 = CC[C@H](C)[C@@H](N[*:1])[C@@H](O)CC(=O)OC(C(=O)C(C)C(=O)[*:2])C(C)C; ξThr(3R)(O-yl) = C[C@@H](O[*:3])C(N[*:1])C(=O)[*:2]; ξNMeY = CNC(Cc1ccc(O)cc1)C(=O)O; ξNMeL = CNC(CC(C)C)C(=O)O; Pyruvoyl = CC(=O)C(=O)*; ξL = CC(C)CC(N)C(=O)O; ξP = O=C(O)C1CCCN1

Test: Lombardo, Berellini, Obach 2018, Drug Metab Dispos 46:1466, doi 10.1124/dmd.118.082966
Conditions: human; for MRT / Vd / clearance / half-life: in vivo, iv; for fraction unbound: plasma

Compound	MRT [h]	Vd [L/kg]	clearance [mL/min/kg]	half-life [h]	fraction unbound
CC1(C)CC[C@]2(C(=O)O)CC[C@]3(COC(=O)C=Cc4cc(O)ccc4NC(=O)/C=C/C(=O)O)C(=CC[C@@H]4[C@@]5(C)CCC(=O)C(C)(C)[C@@H]5CC[C@]43C)[C@@H]2C1	3.18	1.45	7.6		
O=C(O)C1N=C(c2ccccc2)c2cc(Cl)ccc2NC1=O (stereo not drawn)	3	0.2	1.1	2.4	
COc1ccc2[n-]c([S+](O)Cc3ncc(C)c(OC)c3C)nc2c1 (stereo not drawn)	0.48	0.24	8.4	0.58	
COC(=O)C(c1ccccc1)[C@H]1CCCCN1 (stereo partly drawn)	6.62	2.65	6.67	8	0.87
CC[C@H](C)[C@H]1NC(=O)C(NC(=O)C(CC(C)C)N(C)C(=O)C2CCCN2C(=O)C(C)=O)[C@@H](C)OC(=O)C(Cc2ccc(OC)cc2)N(C)C(=O)C2CCCN2C(=O)C(CC(C)C)NC(=O)C(C)C(=O)C(C(C)C)OC(=O)C[C@@H]1O (stereo partly drawn) (Pyruvoyl-[ξP][ξNMeL][ξThr(3R)(O-yl)][X2][ξL][ξP][ξNMeY](Me); ester 3-C)	14.5	6.95	8.05	16.6	
CC#CCn1c(N2CCC[C@@H](N)C2)nc2c1c(=O)n(Cc1nc(C)c3ccccc3n1)c(=O)n2C	140	16	1.9	129	
C[C@H](CN1CCOCC1)C(C(=O)N1CCCC1)(c1ccccc1)c1ccccc1	3.88	0.47	2.19	3.18	
CCCCCCN1CCC(C(=O)N(C)CC)(c2ccccc2)CC1			24	3.6	
CC(C)(C)c1nc(-c2cccc(NS(=O)(=O)c3c(F)cccc3F)c2F)c(-c2ccnc(N)n2)s1	3.8	0.65	2.86	2.6	0.003
COC(=O)O[C@@]12CO[C@@H]1C[C@H](O)[C@@]1(C)C(=O)C(OC(C)=O)=C3C(C)[C@@H](OC(=O)C(O)C(NC(=O)c4ccccc4)c4ccccc4)C[C@@](O)([C@@H](OC(=O)c4ccccc4)[C@H]21)C3(C)C (stereo partly drawn)	13	6.9	8.6	31	
CC(C)CN(C[C@@H](O)[C@H](Cc1ccccc1)NC(=O)O[C@H]1CO[C@H]2OCC[C@H]21)S(=O)(=O)c1ccc(N)cc1			7.81	15	
O=C(/C=C/c1ccccc1)NCCO	1.93	0.11	0.99	1.35	
Cc1ccc2c(-c3ccccc3)nc(=O)n(C(C)C)c2c1	0.92	0.52	9.45	1.27	0.02
COc1ccccc1OC[C@H](O)CN1CCN(CC(=O)Nc2c(C)cccc2C)CC1	2.1	1.2	9.5	1.8	0.38
CO[C@@H]1[C@@H](O[C@@H]2O[C@H](C)[C@@H](O[C@H]3C[C@@](C)(O)[C@@H](O)[C@H](C)O3)[C@H](N(C)C)[C@H]2O)[C@@H](CC=O)C[C@@H](C)[C@@H](O[C@H]2CC[C@@H](N(C)C)[C@H](C)O2)C=CC=CC[C@@H](C)OC(=O)C[C@H]1O	7		12.8	5.2	0.26
Cc1ccnc2c1NC(=O)c1cccnc1N2C1CC1	81	1.3	0.3	53	
C=C(Br)C(=O)Nc1cc(C(=O)Nc2cc(C(=O)Nc3cc(C(=O)Nc4cc(C(=O)NCCN=C(N)N)n(C)c4)n(C)c3)n(C)c2)n(C)c1	1.2	0.36	5.15	8.3	
CN(c1nc2ccccc2s1)C1CCN(C[C@@H](O)COc2ccc(F)cc2)CC1	22.6	5.5	4.05	18.9	0.014
CCn1cc(C(=O)O)c(=O)c2cc(F)c(N3CCN[C@@H](C)C3)c(F)c21	7.89	2.04	3.98	8.1	
CC(O)C(CO)NC(=O)C1CSSCC(NC(=O)C(N)Cc2ccccc2)C(=O)NC(Cc2ccccc2)C(=O)NC(Cc2c[nH]c3ccccc23)C(=O)NC(CCCCN)C(=O)NC(C(C)O)C(=O)N1 (stereo not drawn)	1.3	0.19	2.38	1.7	0.35
CON=C(C(=O)NC1C(=O)N2C(C(=O)[O-])=C(C[N+]34CCC(C(N)=O)(CC3)CC4)CSC12)c1nsc(N)n1 (stereo not drawn)	2.6	0.27	1.7	2.2	
O=C(/C=C/c1ccc(O)c2c1C(C(=O)OC(Cc1ccc(O)c(O)c1)C(=O)O)[C@@H](c1ccc(O)c(O)c1)O2)OC(Cc1ccc(O)c(O)c1)C(=O)O (stereo partly drawn)	0.42	0.14	7.17	0.29	0.08

Compound	MRT [h]	Vd [L/kg]	clearance [mL/min/kg]	half-life [h]	fraction unbound
CSCCC(N)C(=O)NC(CCC(=O)O)C(=O)NC(Cc1cnc[nH]1)C(=O)NC(Cc1ccccc1)C(=O)NC(CCCN=C(N)N)C(=O)NC(Cc1c[nH]c2ccccc12)C(=O)NCC(=O)O (stereo not drawn)	0.01	0.73	871	0.06	
CNCC[C@@H](O)[C@@H]1C[C@H](SC2=C(C(=O)O)N3C(=O)C([C@@H](C)O)[C@H]3[C@H]2C)CN1 (stereo partly drawn)	2.04	0.22	2.02	1.48	
Cc1cc(O)c2c(=O)c3c(O)cc(O)c4c5c(O)cc(O)c6c(=O)c7c(O)cc(C)c8c1c2c(c34)c(c78)c65	32	0.25	0.13	42	
CCC(=O)O[C@H](CC(=O)[O-])C[N+](C)(C)C	2.15	0.3	2.33	1.28	
CC(C(=O)O)c1ccc(N2Cc3ccccc3C2=O)cc1 (stereo not drawn)	2.7	0.12	0.65	2.11	0.01
CC[N+]1(CC)CCC(=C(c2ccccc2)c2ccccc2)[C@@H]1C	2.5	1.87	12.5	2.13	
Oc1cccc(-c2c3nc(c(-c4cccc(O)c4)c4ccc([nH]4)c(-c4cccc(O)c4)c4ccc([nH]4)c(-c4cccc(O)c4)c4nc2CC4)C=C3)c1			0.06	91.5	0.14
CC(C)=CCN1CC[C@]2(C)c3cc(O)ccc3C[C@H]1C2C (stereo partly drawn)					0.39
CNC[C@@H]1CC[C@@H](N)[C@@H](O[C@@H]2[C@H](O)[C@@H](O[C@H]3OC[C@](C)(O)[C@H](NC)[C@H]3O)[C@H](N)C[C@@H]2N)O1	2.4	0.15	1.1	2.1	
CCOC(=O)C1(c2ccccc2)CCN(CCC(O)c2ccccc2)CC1 (stereo not drawn)	4.32	5.7	22	3.22	
O=C1c2ccc3ccccc3c2C(=O)N1CCNCCCNCCN1C(=O)c2ccc3ccccc3c2C1=O	35.2	12	5.7	52.6	
Cc1ccc(O)c([C@H](CCN(C(C)C)C(C)C)c2ccccc2)c1	3	1.5	8.4	2.4	
O=C(c1ccc(OCCN2CCCCC2)cc1)c1c(-c2ccc(O)cc2)sc2cc(O)ccc12	11.6	7.5		12.1	0.05
CCCN(CCC)CCc1cccc2[nH]c(O)cc12	4.3	7.7	30	6	0.6
N=C(N)Nc1ccc(C(=O)Oc2ccc3cc(C(=N)N)ccc3c2)cc1	1.15	5.71	82	1.84	
COc1cccc2c1C(=O)c1c(O)c3c(c(O)c1C2=O)C[C@@](O)(C(=O)CO)C[C@@H]3O[C@H]1C[C@H](N)[C@H](OCc2ccccc2)[C@H](C)O1	43.2	48	18.5	34.6	
CC(C)(O)c1ccccc1CC[C@@H](SCC1(CC(=O)O)CC1)c1cccc(/C=C/c2ccc3ccc(Cl)cc3n2)c1	3.8	0.15	0.68	5	
O=P(O)(O)C(NC1CCCCCC1)P(=O)(O)O	1.85	0.24	2.16	1.82	0.9
CNC(=O)CC(N)C(=O)NC(C(=O)NC1C(=O)N2C(C(=O)O)C(C)(C)S[C@H]12)c1ccc(O)cc1 (stereo partly drawn)	1.61	0.27	2.82	1.45	
C[C@H]1CN(CC(Cc2ccccc2)C(=O)NCC(=O)O)CC[C@@]1(C)c1cccc(O)c1 (stereo partly drawn)	1.24	0.43	5.84	5.3	0.2
CC(=O)N(CC(O)CO)c1c(I)c(C(=O)NCC(O)CO)c(I)c(C(=O)NCC(O)CO)c1I (stereo not drawn)	1.3	0.16	2	1.5	1
CC(=N)N1CC[C@H](Oc2ccc(C(Cc3ccc4ccc(C(=N)N)cc4c3)C(=O)O)cc2)C1 (stereo partly drawn)	14.4	1.55	1.86	24	

Compound	MRT [h]	Vd [L/kg]	clearance [mL/min/kg]	half-life [h]	fraction unbound
CC(S)C(=O)NCC(=O)O (stereo not drawn)	15.7	1.39	1.48	55	0.45
Cc1ccc(Sc2ccccc2N2CCNCC2)c(C)c1	101	35.3	5.8	72	0.02
CC[C@@]1(O)C(=O)OCc2c1cc1n(c2=O)Cc2c-1nc1ccccc1c2CC[Si](C)(C)C	13.3	3.26	4.2	13.2	
CC(C1=C(CCN(C)C)Cc2ccccc21)c1ccccn1 (stereo not drawn)	5.98	2.16	4.83	4.6	
C=CCN(C1=NCCN1)c1c(Cl)cccc1Cl	3.77	2.72	12	3.14	0.4
CN1CC(C(=O)N[C@]2(C)O[C@]3(O)[C@@H]4CCCN4C(=O)C(Cc4ccccc4)N3C2=O)C[C@@H]2c3cccc4[nH]cc(c34)C[C@H]21 (stereo partly drawn)	0.36	0.33	15.1	0.55	
O=P(O)(O)C(Cl)(Cl)P(=O)(O)O	9.2	0.88	1.6	43.2	0.64
COc1cc2ncnc(Nc3ccc(F)c(Cl)c3)c2cc1OCCCN1CCOCC1	32	23		34	
CCCCCCCCCC=CCCC(=O)N=CC(=O)N[C@@H]1[C@@H](O)[C@@H](O)[C@@H](Nc2[nH]cnc3ncnc2-3)O[C@H]1[C@@H](O)CO	1.1	0.17	2.7	1.3	
Cc1ccccc1C(=O)Nc1ccc(C(=O)N2CCC[C@H](O)c3cc(Cl)ccc32)c(C)c1	3.5	0.5	2.4	2.9	0.01
CCC(=O)NCC[C@@H]1CCc2ccc3c(c21)CCO3	1.3	1.05	13.1	1.9	0.2
C[C@]12CC=C3C4=C(CCC3[C@@H]1CC[C@@]2(O)CC#N)CC(=O)CC4 (stereo partly drawn)	8.52	0.6	1.29	11	0.1
Cc1c(F)cc(C(=O)NC2CC2)cc1-c1ccc(C(=O)NCC(C)(C)C)cn1	7.38	1.67		6.95	
CC1(C)S[C@@H]2C(NC(=O)C(NC(=O)N3CCNC3=O)c3ccccc3)C(=O)N2C1C(=O)O (stereo partly drawn)	1.7	0.26	2.5	1.2	0.65
NC(Cc1c[nH]c2ccc(O)cc12)C(=O)O (stereo not drawn)	7.75	0.8	1.72	6.14	
COc1cc(F)ccc1Cn1ccc2c3c(ncc21)C(=O)N(O)CC3	3.95	5.7	24	3.8	0.08
CSCCC(N)C(=O)N[C@@]1(C(=O)O)CS(=O)(=O)[C@H]2C(C(=O)O)[C@H]21 (stereo partly drawn)	0.75	0.44	9.73	0.84	
NS(=O)(=O)c1cc(C(=O)O)cc(N2CCCC2)c1Oc1ccccc1	0.91	0.17	3.1	1.3	0.058
CC(Oc1ccc(Oc2cnc3ccc(Cl)cc3n2)cc1)C(=O)O (stereo not drawn)	63	0.19	0.05	48.2	0.0036
Nc1nc(-n2cc(C(=O)O)c(=O)c3cc(F)c(N4CC(O)C4)c(Cl)c32)c(F)cc1F	2.5	0.35	2.33	2.1	
Cc1ccc(-n2nccn2)c(C(=O)N2CCN(c3nc4cc(Cl)ccc4o3)CC[C@H]2C)c1	13.8	0.69	0.84	10.4	0.05
CCOc1ccc(Cc2cc(C3O[C@H](CO)[C@@H](O)[C@H](O)[C@H]3O)ccc2Cl)cc1 (stereo partly drawn)	9.5	1.7	3	12.2	0.09
